From PMC10233092, “Selective Janus kinase 1 inhibition resolves inflammation and restores hair growth offering a viable treatment option for alopecia areata” (Skin Health and Disease, 2023)
≈ marks a conversion by molar mass, not a printed value. Where “and” joins values, the source holds several entries; their conditions need not be identical. Identical values can stand only once.

Tests used:
[1] = test system: IL‐4, STAT6‐Luc; assay: IL-4-induced JAK-STAT6-luciferase assay in U937 monocytes; type: cell-based; details: Homo sapiens, U-937, interleukin at EC80
[2] = test system: IL‐13, STAT6‐Luc; assay: IL-13-induced JAK-STAT6-luciferase assay in U937 monocytes; type: cell-based; details: Homo sapiens, U-937, interleukin at EC80
[3] = Solubility in phosphate buffer; type: physicochemical; details: pH 7.4, aqueous buffer
Source text: TABLE 1 In vitro potency and selectivity of JAK inhibitors | column: Solubility (μM) ^c

[4] = test system: Human Peripheral Blood Mononuclear Cells (PBMCs); assay: Cytokine release from anti-CD3-stimulated human PBMCs; type: cell-based; details: during stimulation with anti‐CD3, 40–48 h
Procedure: Human Peripheral Blood Mononuclear Cells (PBMCs) were isolated by Sepmate technique (Stemcell Technologies) from heparinized venous blood from healthy volunteers. Primary human CD8^+ T‐cells were further isolated using a CD8^+ T cell Isolation Kit according to protocol (Miltenyi Biotec). Experiments were approved by the local ethical committee in Gothenburg (033‐11).
Soluble anti‐CD28 were added to the CD8^+ cultures to facilitate co‐stimulation. After 40–48 h, supernatants were harvested for mediator analysis and the cells were washed and resuspended in RLT buffer (Qiagen) for RNA isolation.
Analysis of human cytokine panels was carried out using a Luminex assay kit from Merck Millipore (Cat# HCYTMAG‐60K‐PX41) and Mesoscale Discovery (MSD) immunoassay kits (Cat# K211AEB‐2 and K15049D) as recommended in the respective supplier protocols.

[5] = test system: AA mice; design: method as in PMID 25129481; details: 12 weeks of treatment, 3 months follow up; cited from earlier work
[6] = Plasma and skin exposure in treated AA mice; details: 3% cream topically, one hour after application

Row | IC50 [1] [nM] | IC50 [2] [nM] | solubility [3] [µM] | unbound plasma exposure over IC50 [6] | SMILES | release of IL‐1RA from PBMCs [4] | remission after treatment [5]
1 | 110 | 82 | 678 (≈ 208 µg/mL) |  | N#CC[C@H](C1CCCC1)n1cc(-c2ncnc3[nH]ccc23)cn1 [Ruxolitinib, reference compound] | dramatically increased | induced stable remission
2 |  |  | > 1000 | 3–7 fold IC50 and 5 fold IC50 | C[C@@H]1CCN(C(=O)CC#N)C[C@@H]1N(C)c1ncnc2[nH]ccc12 [Tofacitinib, reference compound] | dramatically increased | induced stable remission
